# Test results as given in patent US20020082273A1, “Agents for use in the treatment of alzheimer's disease” (priority 1998, published 2002).
# “And” between values parts separate entries of the source, which are not always exact repeats. Equal entries are not always repeated. “Also recorded” adds a separate entry of the source. Where two headings read alike, the source gives them in different places.
# How the values were obtained:
# [1] = Table 1; K=[ML]/[M][L]; cited from earlier work
# [2] = test system: Aβ1-40 or Aβ1-42 SDS-resistant polymers; assay: Dissolution of in vitro Cu^2+-induced SDS-resistant Aβ polymers; assay type: biochemical, human; settings: polymers generated at pH 7.4
# [3] = Table 1; K=[ML]/[M][L]; cited from earlier work; remark: listed apart in the source
# [4] = Table 1; K=[ML]/[M][L]; cited from earlier work; remark: listed apart in the source
# [5] = Table 1; K=[ML]/[M][L]; cited from earlier work; remark: listed apart in the source
# [6] = Table 1; K=[ML]/[M][L]; cited from earlier work; remark: listed apart in the source
# [7] = Table 1; K=[ML]/[M][L]; cited from earlier work; remark: listed apart in the source
# [8] = Table 1; K=[ML]/[M][L]; cited from earlier work; remark: listed apart in the source
# [9] = sustained treatment, dose as low as 10 mg/kg/day; cited from earlier work
# [10] = oral dose of 200 mg/kg, rats; cited from earlier work
# [11] = Dissolving clioquinol: n-decane / PBS partition; assay type: physicochemical
# Description: Next, the phases were allowed to separate. The lower phase (PBS) was collected and filtered to remove the residue which had formed at the phase interface upon extraction with the organic solvent. The concentration of clioquinol in the PBS was determined to be 800 nanomolar. This number was arrived at based on two assumptions: […]
# Aβ1-40 aggregates = biological target: T1, Aβ1-40 aggregates (Homo sapiens, UniProt P05067); assay: Resolubilization of in vitro metal- or pH-induced Aβ aggregates on filter; assay type: biochemical; settings: chelator 2 μM in TBS
# T1 construct: formed in vitro by the action of Cu^2+ or Zn^2+ upon Aβ1-40 was examined; purchased W. M. Keck Foundation Biotechnology Resource Laboratory (Yale University); host or cells: chemical synthesis
# Description: Aggregates were transferred to a 0.2 μ nylon membrane by filtration. […] The membrane was fixed, probed with the anti-Aβ monoclonal antibody 6E10, and developed for exposure to ECL-film. […] Values are expressed as a percentage of Aβ signal after washing with TBS alone.
# Aβ (10 ng/well in buffered saline) aggregation was induced by addition of metals (5 μM) or acidic conditions (pH 5.5). Aggregates were transferred to a 0.2 μ nylon membrane by filtration. […] The membrane was then fixed, probed with anti-Aβ monoclonal antibody 6E10 and developed for exposure to ECL-film. […] Values are expressed as a % of Aβ signal remaining on the filter after washing with TBS alone.
# [12] = cited from earlier work
# [13] = in vivo, cited from earlier work
# [14] = oral dose of 200 mg/kg, dogs; cited from earlier work
# [15] = oral dose of 500 mg/kg, monkeys; cited from earlier work
# [16] = cited from earlier work; remark: listed apart in the source
# [17] = with PBS at 1:1 mixture; assumption; cited from earlier work
# [18] = Clioquinol in humans: expected plasma levels and side effect; assay type: in vivo
# [19] = test system: Aβ deposits of AD-affected brain; assay: Extraction (solubilization) of Aβ from post-mortem AD brain tissue homogenates, western blot densitometry; assay type: biochemical, human
# brain-derived Aβ = assay: Effect of added metals on solubility of brain-derived Aβ; assay type: biochemical, human; settings: 2 mM in PBS
# Description: Aβ in the high speed supernatant was visualized as described above.
# The homogenates were spun at 100,000× g for 30 min and the supernatant discarded. […] Aβ in the soluble fraction was visualized as described above.
# T1 sequence (P05067 672-711 limits assumed): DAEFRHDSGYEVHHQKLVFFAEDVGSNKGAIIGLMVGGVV
smiles,measurement,setting,value
"O=C(O)CN(CCN(CC(=O)O)CC(=O)O)CC(=O)O [EDTA, ethylenediaminetetra acetic acid]","LogK, Mg",[1],8.9
same,effect of chelators on amount of SDS-resistant polymers,[2],less effective in destabilizing the polymers
same,"LogK, Al",[3],16.5
same,"LogK, Zn",[4],16.5
same,"LogK, Co",[5],16.5
same,"LogK, Fe",[6],14.3
same,"LogK, Cu",[7],18.8
same,"LogK, Ca",[8],10.7
"Oc1c(I)cc(Cl)c2cccnc12 [clioquinol, 5-chloro-7-iodo-8-hydroxyquinoline]",neurological side effect,[9],subacute myclo-optic neuritis
same,plasma levels,[10],5 µM
same,proportion dissolved in n-decane,[11]; 5.3 grams in 200 milliliter of n-decane,2%
same,concentration in PBS after partition from n-decane,"[11]; PBS, pH 7.4, based on two assumptions",0.8 µM
same,Cu^2+-induced Aβ precipitate resolubilized,Aβ1-40 aggregates,85%
same,Zn^2+-induced Aβ precipitate resolubilized,Aβ1-40 aggregates,50%
same,pH 5.5-induced Aβ precipitate resolubilized,Aβ1-40 aggregates,10%
same,removal of a bolus dose from the brain,[12]; in vivo,almost completely removed from the brain within three hours
same,safety,"[12]; many mammalian species, including rat and mouse",appears to be safe
same,blood levels,"[12]; within one hour of ingestion, rats and mice",1 to 10 µM
same,brain / blood-brain barrier penetration,[13],freely permeable into the brain
same,brain / blood-brain barrier penetration,[13]; listed as Clioquinol,crosses the blood brain barrier
same,plasma levels,[14],10 to 30 µM
same,plasma levels,[15],20 to 70 µM
same,excretion half life,[16]; in vivo,1 to 3 h
same,time to peak plasma levels,[16]; oral ingestion,≤ 30 min
same,partitioning coefficient,[17],1/1750
same,peak plasma levels,"[18]; 100 mg, three or four times a day",about 0.1 μM
same,expected plasma level,"[18]; humans, within 30 minutes of ingesting 10 mg/kg body weight",0.5 µM
same,% of total Aβ extracted,[19],1.85% and 4.5% and 3.4%
same,"% of total Aβ extracted, + PBS",[19],0.11% and 2.7% and 1.1%
same,Aβ recovered in the soluble phase compared to PBS alone,[19],doubling the recovery of Aβ; also recorded: more than twice
same,increase in solubilization of Aβ relative to PBS alone,[19],2.5 fold
[Mg] [magnesium],resolubilization of Aβ in tissue depleted of metals by EGTA,brain-derived Aβ,led to resolubilization of the precipitated Aβ
